{
  "source": "patent US20210008095A1",
  "about": "“METHODS FOR TREATING MUSCULAR DYSTROPHY” (Sarepta Therapeutics, Inc., priority 2015, published 2021)",
  "key": {"[1]": {"test_system": "dystrophin", "experiment": "Dystrophin protein expression by western blot analysis in muscle biopsy", "format": "in vivo, human", "details": "180 weeks", "experimental": "In some embodiments, the percent dystrophin-positive fibers are calculated by dividing the number of positive fibers by the total fibers counted. Normal muscle samples have 100% dystrophin-positive fibers. Therefore, the percent dystrophin-positive fibers can be expressed as a percentage of normal. To control for the presence of trace levels of dystrophin in the pretreatment muscle as well as revertant fibers a baseline can be set using sections of pre-treatment muscles from each patient when counting dystrophin-positive fibers in post-treatment muscles. This may be used as a threshold for counting dystrophin-positive fibers in sections of post-treatment muscle in that patient. In other embodiments, antibody-stained tissue sections can also be used for dystrophin quantification using Bioquant image analysis software (Bioquant Image Analysis Corporation, Nashville, Tenn.). The total dystrophin fluorescence signal intensity can be reported as a percentage of normal. […] Dystrophin production can also be measured by reverse-transcription polymerase chain reaction (RT-PCR). […] The percentage of dystrophin-positive fibers can also be analyzed by determining the expression of the components of the sarcoglycan complex (β,γ) and/or neuronal NOS. […]"}, "[2]": {"test_system": "patients with Duchenne muscular dystrophy (DMD) amenable to exon 51 skipping", "experiment": "Ability to rise independently from supine / rise time", "format": "in vivo, human", "description": "In some embodiments, muscle function in a DMD patient may be assessed for ability to rise from a supine position without external assistance (independently). In some embodiments, the assessment can include whether or not the subject has the ability to rise from a supine position. In some embodiments, the assessment includes the time (e.g., in seconds) it takes for the patient to rise from a supine position without external assistance. Such measurements are well known to the skilled artisan and are described in, e.g., Bushby and Connor (2011) Clin Investig (Lond.) 1(9):1217-1235 and Henricson et al. (2013) Muscle Nerve 48(1):55-67, the disclosures of each of which are incorporated herein by reference in their entirety. In some embodiments, a patient treated by any of the methods described herein has lost the ability to rise independently from a supine position prior to beginning treatment with eteplirsen. In some embodiments, the patient lost the ability to rise independently from a supine position at least one (e.g., at least two, three, four, five, six, seven, eight, nine, 10, 11, 12, 16, 18, 20, 24, or more) month(s) prior to beginning treatment with eteplirsen. In some embodiments, a patient treated by any of the methods described herein loses the ability to rise independently from a supine position while being treated with eteplirsen. In some embodiments, the patient loses the ability to rise independently from a supine position at least one (e.g., at least two, three, four, five, six, seven, eight, nine, 10, 11, 12, 16, 18, 20, 24, 30, or 36 or more) month(s) after commencing treatment with eteplirsen.\n(§1) The 6MWT was administered using the protocol established for patients with DMD by McDonald, et al. (Muscle Nerve, 2010; 42:966-74; Muscle Nerve, 2010; 41:500-10 herein incorporated by reference), except there was no use of the StepWatch actimetry device. Exploratory functional outcomes included the North Star Ambulatory Assessment, quantitative muscle testing, the 9-Hole Peg Test, pulmonary function testing (PFT), timed function tests, and assessment of quality of life."}, "[3]": {"test_system": "dystrophin", "experiment": "Dystrophin positive fibers by immunohistochemistry (MANDYS106) in muscle biopsy", "format": "in vivo, human", "experimental": "(§2) Patients continued weekly dosing with 30 or 50 mg/kg eteplirsen under Study 202 (Study no. 4658-us-202; ClinicalTrials.gov Identifier: NCT01540409) a long-term, open-label extension study. All efficacy assessments continued to be performed during Study 202, including a third biopsy (in the left deltoid muscle) in all patients at week 48. A voluntary fourth biopsy ( 11/12 patients) was performed at week 180. Monitoring of adverse events continued throughout the study.\nDystrophin expression levels were determined in both the eteplirsen treated cohort and matched external control cohort, based on MANDYS106 [a gift from Glen Morris, MDA Monoclonal Antibody Library], a highly sensitive marker for dystrophin used in prior studies of eteplirsen and other exon skipping candidates. Three 10 μm frozen sections, separated by at least 200 μm, were stained with MANDYS106, followed by a secondary antibody (Alexa Fluor 594 goat antimouse antibody). Four pathologists reviewed the tissue blinded and reported percent dystrophin-positive fibers, which were calculated by dividing the number of positive fibers by the total fibers counted. As normal muscle samples have 100% dystrophin-positive fibers, percent dystrophin-positive fibers is expressed as a percentage of normal."}, "[4]": {"test_system": "patients with Duchenne muscular dystrophy (DMD) amenable to exon 51 skipping", "experiment": "North Star Ambulatory Assessment (NSAA)", "format": "in vivo, human", "set-up": "key to Year 3 NSAA Score: sum of activity scores, each 2 = normal to 0 = unable independently", "description": "Due to decreases in muscle function in patients with DMD, ambulation is often lost during disease progression. Ambulation can be measured through various methods, including the North Star Ambulatory Assessment (NSAA). The NSAA was developed by the Physiotherapy Assessment and Evaluation Group of the North Start Clinical Network to assess ambulant boys with DMD, and provides a list of activities that are scored from 2-0, with 2 being normal and 0 being “unable to achieve independently” (2006-2011 MDC/North Star Clinical Network). These activities range from standing for a minimum of 3 seconds to climbing up and down a box to running. In certain embodiments, treatment with eteplirsen may maintain, stabilize, increase, or improve ambulation, for example, as determined by the NSAA.\nas §1"}, "[5]": {"test_system": "exon 51 of the human dystrophin gene", "experiment": "Exon 51 skipping in patient muscle biopsy at week 180", "format": "in vivo", "details": "180 weeks", "experimental": "as §2"}, "[6]": {"details": "individual ambulatory subjects (n=10), year of loss of ability in brackets"}},
  "note": "“And” between values parts separate entries of the source, which are not always exact repeats. Equal values may be shown once.",
  "data": [
    {"substance": "RNA, [P-deoxy-P-(dimethylamino)](2′,3′-dideoxy-2′,3′-imino-2′,3′-seco)(2′a→5′)(C-m5U-C-C-A-A-C-A-m5U-C-A-A-G-G-A-A-G-A-m5U-G-G-C-A-m5U-m5U-m5U-C-m5U-A-G), 5′-[P-[4-[[2-[2-(2-hydroxyethoxy)ethoxy]ethoxy]carbonyl]-1-piperazinyl]-N,N-dimethylphosphonamidate] (antisense CTCCAACATCAAGGAAGATGGCATTTCTAG; all phosphorodiamidate morpholino (PMO); 5' piperazinyl triethylene glycol carbamate tail on phosphonamidate, further chemistry not fully specified) [eteplirsen]", "values": [
      {"measurement": "patients with dystrophin protein expression as measured by western blot analysis", "setting": "[1]", "result": "9 of 11"},
      {"measurement": "number of patients who lost the ability to rise without external support", "setting": "[2]; from years 1 to 3", "result": "four"},
      {"measurement": "Year 3 Rise Time", "setting": "[2]; [6]", "result": "24.1 s and 17.9 s and 13.1 s and 8.9 s and 8.2 s and 6.2 s"},
      {"measurement": "Year 3 Rise Time(s)", "setting": "[2]; [6]", "result": "Unable to rise"},
      {"measurement": "patients with dystrophin positive fibers as measured by immunohistochemistry", "setting": "[3]; 180 weeks", "result": "10 of 11"},
      {"measurement": "dystrophin positive fibers compared to matched external control patients", "setting": "[3]; after 180 weeks, four blinded pathologists, p<0.001", "result": "significantly higher amount of dystrophin positive fibers"},
      {"measurement": "rate of decline in NSAA score", "setting": "[4]; at 2 and 3 years following treatment, vs external control", "result": "slower rate of decline in NSAA score"},
      {"measurement": "difference in NSAA score compared to the external control group cohort", "setting": "[4]; at 3 years", "result": 2.6, "unit": "points"},
      {"measurement": "Year 3 NSAA Score", "setting": "[4]; individual ambulatory subjects (n=10)", "result": "13 (3×) and 14 and 24 and 25 (2×) and 7 and 8 and 11"},
      {"measurement": "exon 51 skipping", "setting": "[5]", "result": "all patients had measurable exon 51 skipping"}
    ]}
  ]
}
